These results are taken from patent US11897862B2 (Gilead Sciences, Inc., priority 2022, dated 2024).

The structures appear in SMILES notation.

The target of assay [1] is IKZF2 (Homo sapiens, UniProt Q96SW2+Q9UKS7). Nature of the assay: HEK293 HiBiT in vitro degradation of IKZF2. It is filed as cell-based. The arrangement: expressed in transfected cells. The following applies: for Dmax: HEK293, HEK293 HiBiT; for Dmax / IKZF2 Dmax: maximum degradation at the highest concentration tested; for DC50 / IKZF2 Dmax: HEK293 HiBiT; for DC50: 18-24 hr incubation, normalized to DMSO control, read-out: IKZF2 EC50. The method, then: (§1) In vitro degradation of IKZF1, IKZF2, and SALL4 was measured using HiBiT protein tagging and detection technology (Promega).
(§2) HiBit technology was used to develop the quantitative assays to measure the cellular IKZFs level by tagging an 11 amino acid HiBit peptides […] to the protein of interest. Reporter plasmids were generated by fusing a linker sequence ([…]) followed by the HiBit tag at the C-terminus of IKZF1, IKZF2, and SALL4. The fusion fragments were subsequently cloned into pcDNA5 pcDNA™5/FRT/TO plasmids (Thermo Fisher, cat #V652020) downstream of the tetracycline operator. The resulting plasmids were co-transfected with pOG44 Flp-Recombinase Expression Vector (Thermo Fisher, cat #V600520) into Flp-In™ T-REx HEK293 line (Thermo Fisher, cat #R78077) and a stable cell pool was selected by adding 100 µg/ml of Hygromycin (Thermo Fisher, cat #10687010). The reporter cell enabled Tet-On inducible reporter expression from a single copy of the integrated gene.
(§3) On Day 1, Cells were grown to ˜80% confluency in tissue culture medium (DMEM Glutamax (Gibco10569), 10% Tet free FBS (Takara 631106), and PenStrep Glutamin (Gibco 10378)) in tissue culture flasks. Doxycycline was then added to a final concentration of […] to induce reporter expression at 37° C. overnight.
(§4) On Day 2, 125 nL of serially-diluted solution of testing compounds were dispensed into 384-well white solid assay plates via ECHO acoustic liquid handler. Cells were lifted by 0.25% Trypsin (Gibco 25200) then pelleted by centrifugation (Beckman Avanti J-E) at 500×g for 5 min. Cell pellets were resuspended in TC medium at the concentration of 3e5/mL and 25 μL of cell suspension were added into each well of compound-spotted plates. The plates were returned to a 37° C. incubator overnight (18-24 hr).
(§5) On Day 3, assay plates were removed from the tissue culture incubator and 25 μL of Nano-Glo lytic detection system (Promega, cat #N3030) was added to each well. Plates were incubated at r.t. for 3 min with shaking, and luminescence was read using an Envision reader (Perkin Elmer).
(§6) To assess the IKZF1, IKZF2, and SALL4 degrader potential of exemplified compounds of this disclosure and certain Reference Compounds EC50 and Dmax values were determined for the compounds of Examples 1 to 383 and Reference Compounds A-1, B-1, B-2, B-3, B-4, and C-1 in the HiBiT assays. Asterisks (*) indicate examples for which the data shown represents an average of n≥3.

Assay [2] concerns the target T1, IKZF1 (Homo sapiens, UniProt Q13422+Q96SW2).
T1 construct: expressed in transfected cells
In words: HEK293 HiBiT in vitro degradation of IKZF1. It is filed as cell-based. The following applies: for DC50 / IKZF1 Dmax: HEK293 HiBiT; for DC50: 18-24 hr incubation, normalized to DMSO control, read-out: IKZF1 EC50; for Dmax: HEK293, HEK293 HiBiT; for Dmax / IKZF1 Dmax: maximum degradation at the highest concentration tested. The method, then: as §1, §2, §3, §4, §5, §6
Background: HiBiT is a short tag that completes a luciferase, so light tracks the accessible tagged protein.

Sequence of IKZF2 (Q9UKS7 1-500 isoform Q9UKS7-2): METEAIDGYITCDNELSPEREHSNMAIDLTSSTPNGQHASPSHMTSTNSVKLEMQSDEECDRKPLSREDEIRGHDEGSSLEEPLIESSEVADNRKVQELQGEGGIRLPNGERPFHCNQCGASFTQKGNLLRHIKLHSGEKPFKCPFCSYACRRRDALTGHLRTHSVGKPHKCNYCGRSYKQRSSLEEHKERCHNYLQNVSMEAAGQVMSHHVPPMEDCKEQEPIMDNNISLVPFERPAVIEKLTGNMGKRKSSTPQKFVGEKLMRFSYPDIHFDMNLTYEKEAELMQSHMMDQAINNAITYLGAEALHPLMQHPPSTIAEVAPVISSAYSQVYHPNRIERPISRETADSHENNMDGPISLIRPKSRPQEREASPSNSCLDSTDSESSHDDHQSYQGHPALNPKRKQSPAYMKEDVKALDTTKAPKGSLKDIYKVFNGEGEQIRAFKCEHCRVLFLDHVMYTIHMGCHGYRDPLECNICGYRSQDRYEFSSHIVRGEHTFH
Sequence of IKZF2 (Q96SW2 whole entry): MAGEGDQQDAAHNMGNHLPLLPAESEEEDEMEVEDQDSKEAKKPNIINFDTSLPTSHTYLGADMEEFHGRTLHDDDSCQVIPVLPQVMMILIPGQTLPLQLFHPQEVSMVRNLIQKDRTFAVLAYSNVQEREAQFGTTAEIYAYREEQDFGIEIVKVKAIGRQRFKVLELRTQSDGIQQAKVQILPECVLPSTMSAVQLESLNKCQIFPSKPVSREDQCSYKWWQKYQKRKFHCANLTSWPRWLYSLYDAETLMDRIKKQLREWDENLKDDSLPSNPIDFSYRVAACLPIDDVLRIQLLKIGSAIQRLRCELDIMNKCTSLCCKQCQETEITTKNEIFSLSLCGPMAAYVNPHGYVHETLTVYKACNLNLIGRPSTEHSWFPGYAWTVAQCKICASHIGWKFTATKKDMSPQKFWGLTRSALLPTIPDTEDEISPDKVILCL
Sequence of IKZF2 (Q16531 whole entry partner): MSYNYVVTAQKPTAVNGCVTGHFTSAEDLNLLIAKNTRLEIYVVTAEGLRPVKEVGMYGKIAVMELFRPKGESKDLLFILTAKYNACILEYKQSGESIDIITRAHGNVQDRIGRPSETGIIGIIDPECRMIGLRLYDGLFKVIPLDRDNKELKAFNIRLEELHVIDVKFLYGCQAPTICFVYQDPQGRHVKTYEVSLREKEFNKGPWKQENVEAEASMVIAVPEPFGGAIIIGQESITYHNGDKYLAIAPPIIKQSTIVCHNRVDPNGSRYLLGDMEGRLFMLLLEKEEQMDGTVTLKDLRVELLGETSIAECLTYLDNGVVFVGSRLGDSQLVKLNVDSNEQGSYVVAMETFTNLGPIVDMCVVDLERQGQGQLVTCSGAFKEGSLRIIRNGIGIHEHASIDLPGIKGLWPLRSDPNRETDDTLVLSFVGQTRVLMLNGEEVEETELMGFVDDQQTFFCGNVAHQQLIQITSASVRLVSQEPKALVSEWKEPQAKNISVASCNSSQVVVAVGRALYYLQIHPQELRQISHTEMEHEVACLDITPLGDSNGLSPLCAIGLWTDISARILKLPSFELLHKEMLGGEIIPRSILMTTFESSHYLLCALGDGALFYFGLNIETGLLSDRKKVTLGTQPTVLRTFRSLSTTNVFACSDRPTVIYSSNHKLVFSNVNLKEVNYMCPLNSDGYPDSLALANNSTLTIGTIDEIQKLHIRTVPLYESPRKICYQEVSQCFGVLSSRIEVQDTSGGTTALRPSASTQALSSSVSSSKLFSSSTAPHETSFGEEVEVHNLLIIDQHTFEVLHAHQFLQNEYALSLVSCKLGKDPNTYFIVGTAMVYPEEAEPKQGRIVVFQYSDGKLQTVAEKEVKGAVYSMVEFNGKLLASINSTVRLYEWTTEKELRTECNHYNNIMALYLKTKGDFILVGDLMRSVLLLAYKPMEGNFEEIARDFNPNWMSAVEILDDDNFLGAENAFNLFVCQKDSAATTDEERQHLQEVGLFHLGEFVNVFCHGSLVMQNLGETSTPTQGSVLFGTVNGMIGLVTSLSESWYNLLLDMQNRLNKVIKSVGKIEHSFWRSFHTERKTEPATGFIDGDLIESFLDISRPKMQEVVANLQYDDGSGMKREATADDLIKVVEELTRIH
T1 sequence (Q13422 whole entry): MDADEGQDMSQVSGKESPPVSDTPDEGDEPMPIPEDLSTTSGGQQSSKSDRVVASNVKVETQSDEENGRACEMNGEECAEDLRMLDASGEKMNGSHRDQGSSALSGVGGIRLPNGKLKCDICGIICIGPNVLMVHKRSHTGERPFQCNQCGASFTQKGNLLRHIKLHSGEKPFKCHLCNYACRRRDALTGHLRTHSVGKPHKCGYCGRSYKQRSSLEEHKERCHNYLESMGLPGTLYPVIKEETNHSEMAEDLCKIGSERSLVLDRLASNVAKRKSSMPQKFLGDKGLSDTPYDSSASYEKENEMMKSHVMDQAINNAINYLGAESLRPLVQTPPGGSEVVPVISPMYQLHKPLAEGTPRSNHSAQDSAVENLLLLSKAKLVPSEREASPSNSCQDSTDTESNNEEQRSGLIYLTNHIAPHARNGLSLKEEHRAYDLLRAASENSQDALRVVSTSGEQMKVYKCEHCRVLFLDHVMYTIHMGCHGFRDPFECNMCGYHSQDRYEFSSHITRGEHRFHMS
T1 sequence (Q96SW2 whole entry): as the sequence (Q96SW2 whole entry) above
T1 sequence (Q16531 whole entry partner): as the sequence (Q16531 whole entry partner) above

In the case of `O=C1CCC(N2Cc3c(ccc(C[C@H]4OCCC[C@@H]4NC4CCOC4)c3F)C2=O)C(=O)N1` (single isomer, unassigned) [Example 296], in assay [1], the Dmax (as a rule, the largest share of the target that was removed) is 86% and the DC50 was found to be 105 nM. The DC50 in assay [2] was more than 1000 nM.

Turning to `O=C1CCC(N2Cc3c(ccc(C[C@H]4OCCC[C@@H]4NC4CCOC4)c3F)C2=O)C(=O)N1` (single isomer, unassigned) [Example 297], in assay [1], the DC50 amounted to 101 nM and the “IKZF2 Dmax” value came out at 84%. In assay [2], the DC50 is more than 1000 nM.

Consider `CC(N[C@H]1CCCO[C@@H]1Cc1ccc2c(c1F)CN(C1CCC(=O)NC1=O)C2=O)C1CCOCC1` (single isomer, unassigned) [Example 298], for which, in assay [1], the DC50 amounted to 55 nM and the “IKZF2 Dmax” value was determined as 76%. Further, in assay [2], the DC50 is more than 1000 nM.

In the case of `CCC(C)N[C@H]1CCCC[C@@H]1Cc1ccc2c(c1)CN(C1CCC(=O)NC1=O)C2=O` (single isomer, unassigned) [Example 300], the DC50 in assay [1] was 4 nM; in assay [2], more than 1000 nM. The “IKZF2 Dmax” value in assay [1] came to 97%.

As for `COC1(C)CCC(N[C@H]2CCCO[C@@H]2Cc2ccc3c(c2F)CN(C2CCC(=O)NC2=O)C3=O)CC1` (single isomer, unassigned) [Example 317], in assay [1], the DC50 turned out to be 6 nM and the “IKZF2 Dmax” value is 94%. In addition, in assay [2], the Dmax is 33% and the DC50 amounted to 243 nM.

On to `O=C1CCC(N2Cc3c(ccc(C[C@H]4OCCC[C@@H]4NC4CCC(OC(F)F)CC4)c3F)C2=O)C(=O)N1` (single isomer, unassigned) [Example 326], for which the Dmax amounted to 95% in assay [1] and 40% in assay [2]. In addition, the results for the DC50 in assay [1] and in assay [2] were 7 nM and 261 nM, respectively.

As to `O=C1CC[C@H](N2Cc3cc(C[C@H]4CCCC[C@@H]4NC4CCCCC4)ccc3C2=O)C(=O)N1` (single isomer, unassigned) [Example 336], in assay [1], the maximal degradation (Dmax) turned out to be 97% and the DC50 stood at 3 nM. For the same molecule, the DC50 in assay [2] is more than 1000 nM.

In assay [1], `O=C1CC[C@@H](N2Cc3cc(C[C@H]4CCCC[C@@H]4NC4CCCCC4)ccc3C2=O)C(=O)N1` (single isomer, unassigned) [Example 337] had a Dmax of 95%. Further, the DC50 is 5 nM in assay [1] and more than 1000 nM in assay [2].

In the case of `O=C1CC[C@H](N2Cc3c(ccc(C[C@H]4OCCC[C@@H]4NC4CCCCC4)c3F)C2=O)C(=O)N1` (single isomer, unassigned) [Example 338], in assay [1], the Dmax stood at 92% and the DC50 came out at 6 nM. Also, the DC50 in assay [2] was more than 1000 nM.

Take `O=C1CC[C@@H](N2Cc3c(ccc(C[C@H]4OCCC[C@@H]4NC4CCCCC4)c3F)C2=O)C(=O)N1` (single isomer, unassigned) [Example 339]: in assay [1], the Dmax was 93% and the DC50 was determined as 11 nM. Besides, in assay [2], the DC50 is more than 1000 nM.

For `O=C1CCC(N2Cc3cc(C[C@H]4OCCC[C@@H]4NC4CCC(C(F)(F)F)CC4)ccc3C2=O)C(=O)N1` (single isomer, unassigned) [Example 356], in assay [1], the Dmax was 76% and the DC50 worked out at 49 nM. The DC50 in assay [2] was more than 1000 nM.

For the molecule `O=C1CCC(N2Cc3cc(C[C@H]4OCCC[C@@H]4NC4CCC(C(F)(F)F)CC4)ccc3C2=O)C(=O)N1` (single isomer, unassigned) [Example 357], in assay [1], the DC50 was found to be 23 nM and the “IKZF2 Dmax” value is recorded as 89%. In assay [2], the Dmax came to 40% and the DC50 turned out to be 465 nM.

With `O=C1CCC(N2Cc3cc(C[C@H]4CCCC[C@@H]4NC4CCc5cn[nH]c5C4)ccc3C2=O)C(=O)N1` (single isomer, unassigned) [Example 358], the Dmax in assay [1] is 100%; in assay [2], 34%. Besides, the DC50 came out at 18 nM in assay [1] and 231 nM in assay [2].

Take `O=C1CCC(N2Cc3cc(C[C@H]4CCCC[C@@H]4NC4CCc5cn[nH]c5C4)ccc3C2=O)C(=O)N1` (single isomer, unassigned) [Example 359]: in assay [1], the DC50 is 9 nM and the “IKZF2 Dmax” value came out at 101%. Besides, in assay [2], the DC50 came to 249 nM and the “IKZF1 Dmax” value was determined as 43%.

As to `O=C1CCC(N2Cc3c(ccc(C[C@H]4OCCC[C@@H]4NC4CCc5cn[nH]c5C4)c3F)C2=O)C(=O)N1` (single isomer, unassigned) [Example 360], in assay [1], the Dmax amounted to 90% and the DC50 worked out at 139 nM. Moreover, in assay [2], the DC50 is more than 1000 nM.

For `O=C1CCC(N2Cc3c(ccc(C[C@H]4OCCC[C@@H]4NC4CCc5cn[nH]c5C4)c3F)C2=O)C(=O)N1` (single isomer, unassigned) [Example 361], in assay [1], the DC50 was 34 nM and the “IKZF2 Dmax” value was found to be 102%. For the same molecule, in assay [2], the DC50 is more than 1000 nM.

Regarding `O=C1CCC(N2Cc3c(ccc(C[C@H]4OCCC[C@@H]4NC4CCC5(CC4)CC5(F)F)c3F)C2=O)C(=O)N1` (single isomer, unassigned) [Example 365], in assay [1], the DC50 is 3 nM and the “IKZF2 Dmax” value worked out at 95%. Besides, in assay [2], the DC50 turned out to be 122 nM and the “IKZF1 Dmax” value is recorded as 43%.

In the case of `CC(N[C@H]1CCCC[C@@H]1Cc1ccc2c(c1)CN(C1CCC(=O)NC1=O)C2=O)C1CCS(=O)(=O)CC1` (single isomer, unassigned) [Example 370], in assay [1], the Dmax is 95% and the DC50 is 10 nM. Also, in assay [2], the Dmax was found to be 53% and the DC50 came to 117 nM.

For `CC(N[C@H]1CCCC[C@@H]1Cc1ccc2c(c1)CN(C1CCC(=O)NC1=O)C2=O)C1CCS(=O)(=O)CC1` (single isomer, unassigned) [Example 371], in assay [1], the DC50 came to 62 nM and the “IKZF2 Dmax” value is recorded as 94%. In assay [2], the DC50 was determined as 461 nM and the “IKZF1 Dmax” value was 50%.

For `O=C1CC[C@@H](N2Cc3c(ccc(C[C@H]4OCCC[C@@H]4N[C@H]4CC[C@@H](F)CC4)c3F)C2=O)C(=O)N1` (single isomer, unassigned) [Example 372], in assay [1], the Dmax stood at 94% and the DC50 was found to be 5 nM. In addition, the DC50 in assay [2] is more than 1000 nM.

Consider `O=C1CCC(N2Cc3cc(C[C@H]4CC(CO)CC[C@@H]4NC4CCCCC4)ccc3C2=O)C(=O)N1` (single isomer, unassigned) [Example 382], for which, in assay [1], the DC50 is 629 nM and the “IKZF2 Dmax” value is on record as 48%. Further, in assay [2], the DC50 is more than 1000 nM.

For `O=C1CCC(N2Cc3cc(C[C@H]4CC(CO)CC[C@@H]4NC4CCCCC4)ccc3C2=O)C(=O)N1` (single isomer, unassigned) [Example 383], the results for the DC50 in assay [1] and in assay [2] were 226 nM and more than 1000 nM, respectively. Moreover, the “IKZF2 Dmax” value in assay [1] is reported as 77%.

In the case of `N[C@H]1CCCC[C@@H]1Cc1ccc2c(c1)CN(C1CCC(=O)NC1=O)C2=O` (stereo partly drawn) [Example 1, 3-(5-(((1R,2S)-2-aminocyclohexyl)methyl)-1-oxoisoindolin-2-yl)piperidine-2,6-dione], the Dmax in assay [1] turned out to be 82%; in assay [2], 30%. The results for the DC50 in assay [1] and in assay [2] were 225 nM and 933 nM, respectively.

In the case of `O=C1CCC(N2Cc3cc(C[C@H]4CCCC[C@@H]4NCc4ccccc4Cl)ccc3C2=O)C(=O)N1` (stereo partly drawn) [Example 3, 3-(5-(((1R,2S)-2-((2-chlorobenzyl)amino)cyclohexyl)methyl)-1-oxoisoindolin-2-yl)piperidine-2,6-dione], in assay [1], the Dmax stood at 94% and the DC50 was determined as 19 nM. Besides, in assay [2], the greatest degradation seen (Dmax) worked out at 38% and the DC50 was determined as 34 nM.

As for `O=C1CCC(N2Cc3cc(C[C@H]4CCCC[C@@H]4NCc4ccccc4)c(F)cc3C2=O)C(=O)N1` (stereo partly drawn) [Example 4, 3-(5-(((1R,2S)-2-(benzylamino)cyclohexyl)methyl)-6-fluoro-1-oxoisoindolin-2-yl)piperidine-2,6-dione], in assay [1], the Dmax was determined as 92% and the DC50 was determined as 58 nM. For the same molecule, in assay [2], the Dmax was determined as 26% and the DC50 was 130 nM.

For `O=C1CCC(N2Cc3c(ccc(C[C@H]4CCCC[C@@H]4N(Cc4ccccc4)Cc4ccccc4)c3F)C2=O)C(=O)N1` (stereo partly drawn) [Example 5, 3-(5-(((1R,2S)-2-(dibenzylamino)cyclohexyl)methyl)-4-fluoro-1-oxoisoindolin-2-yl)piperidine-2,6-dione], in assay [1], the Dmax was 92% and the DC50 was 353 nM. Further, the DC50 in assay [2] is more than 1000 nM.
